System: RPE1 cells
Assay: Cell death after passing a constriction in micro-channels, with DNA repair inhibited by ATMi
Assay type: cell-based
Conditions: ATMi 10 μM
Protocol: Micro-channels were prepared as previously described (Heuzé M L et al, 2011, 769, pp. 415-434). Briefly, polydimethylsiloxane (PDMS) (GE Silicones) was used to prepare 7 μm wide and 5 μm high micro-channels with constrictions of varying lengths and widths from a self-made mold. For HeLa cells, larger channels of 12 μm width and 5 μm height were used because of their larger nuclei. Channels with constrictions were incubated with 15 μg/mL of fibronectin for 30 min then washed with PBS at least 3 times and finally incubated with medium (containing drugs if necessary) for at least 5 hours before adding cells. Not that the height inside constriction varied depending on the width: height was 2 μm for 1.5 μm wide constrictions, 3.5 μm for 2 μm wide constrictions, 4 μm for 3 μm and 4 μm wide constrictions, and 5 μm for 5 μm wide constrictions.
siRNA 5′-AAAGCAUGGACGAUCAGGAAG-3′ (SEQ ID NO: 6) was used to deplete CHMP3 (Jimenez Science 2014), SMARTpool for SUN1 and SUN2 (Dharmacon, GE LifeSciences), both 5′-GGUGGUGACGAUCUGGGCU-3′ (SEQ ID NO: 7); and 5′-[…]-3′(SEQ ID NO: 8) to target LMNA. Non-targeting siRNA (Dharmacon, GE Life Technologies) was used as the control. siRNA was transfected with Lipofectamine RNAiMAX (Invitrogen). Cells were transfected with 120 nM siRNA 48 h and again 24 h before the experiment.
For immunofluorescence, secondary antibodies anti-mouse-Alexa488 and anti-Goat-Alexa488 (Jackson ImmunoResearch Laboratories) were used. ATMi (KU-55933, TOCRIS) was used at 10 μM to inhibit DNA repair.
The inventors hypothesized that efficient resealing was responsible for the high survival rate of cells passing through constrictions. The inventors thus quantified the occurrence of cell death after passage through a single constriction in RPE1 cells either depleted for LMNA/C, or for CHMP3. As expected from previous work by others, the inventors found a dramatic increase in death in LMNA/C-depleted cells (FIG. 4A), even inside straight channels, but stronger when cells were passing constrictions where the NE ruptured for longer periods of time.
The inventors therefore hypothesized that the cell death observed upon migration through constrictions in LMNA/C-depleted cells could be caused by a defect in DNA repair combined with a high degree of DNA damage due to prolonged nuclear envelope opening. To test this hypothesis, the inventors inhibited DNA repair using an ATM inhibitor (ATMi, Fig S4E; 22), in control cells and in cells depleted for LMNA/C, or CHMP3.

## O=c1cc(-c2cccc3c2Sc2ccccc2S3)oc(N2CCOCC2)c1 [ATMi, KU-55933]
CHMP3-depleted RPE1 cells migrating through constrictions
  level of cell death: about 30%
CHMP3-depleted RPE1 cells that did not migrate through constrictions
  level of cell death: no effect
LMNA/C-depleted RPE1 cells
  level of cell death: further increased
Control RPE1 cells
  level of cell death: no effect

Reference: patent US10969389B2, “Method to monitor and quantify interphase nuclear envelope rupture events” (INSTITUT CURIE, priority 2016, dated 2021)
